Test results reported in patent publication US20230416227A1, “PLASMA KALLIKREIN INHIBITORS” (Merck Sharp & Dohme LLC, priority 2020, published 2023).

Experiments:
Human plasma kallikrein = biological target: T1, Human plasma kallikrein (Homo sapiens, UniProt P03952); assay: Plasma Kallikrein Assay; type: biochemical; details: purified Human plasma kallikrein 0.5 nM, substrate Acetyl-K-P-R-AFC, pH 7.4
T1 construct: yields a heavy chain (371 amino acids) and a light chain (248 amino acids); purchased Enzyme Research Laboratories
T1 sequence (P03952 391-638 limits assumed): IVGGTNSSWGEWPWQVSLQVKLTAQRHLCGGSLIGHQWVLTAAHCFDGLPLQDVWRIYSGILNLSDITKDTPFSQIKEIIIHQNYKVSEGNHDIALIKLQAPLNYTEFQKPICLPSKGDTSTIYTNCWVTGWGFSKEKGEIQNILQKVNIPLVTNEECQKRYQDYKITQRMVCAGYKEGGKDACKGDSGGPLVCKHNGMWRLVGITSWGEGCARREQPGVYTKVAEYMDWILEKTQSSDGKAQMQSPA
T1 sequence (P03952 20-390 partner limits assumed): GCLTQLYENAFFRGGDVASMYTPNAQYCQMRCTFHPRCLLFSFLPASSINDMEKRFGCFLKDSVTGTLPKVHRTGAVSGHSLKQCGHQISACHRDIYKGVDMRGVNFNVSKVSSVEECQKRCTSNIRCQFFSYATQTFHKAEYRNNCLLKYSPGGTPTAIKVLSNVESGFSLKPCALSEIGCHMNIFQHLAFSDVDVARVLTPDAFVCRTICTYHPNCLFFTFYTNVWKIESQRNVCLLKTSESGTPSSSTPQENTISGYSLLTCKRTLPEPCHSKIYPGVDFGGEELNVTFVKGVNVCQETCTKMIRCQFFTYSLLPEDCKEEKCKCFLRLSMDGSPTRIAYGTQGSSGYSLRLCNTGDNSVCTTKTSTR

human factor XIa = human factor XIa (Homo sapiens, UniProt P03951); assay: Factor XIa Assay; type: biochemical; details: human factor XIa 0.04 nM, substrate GPR-AFC, 30 min pre-incubation at 25° C., pH 7.4; read-out: FXIa IC50
human factor XIa, sequence (P03951 388-625 limits assumed): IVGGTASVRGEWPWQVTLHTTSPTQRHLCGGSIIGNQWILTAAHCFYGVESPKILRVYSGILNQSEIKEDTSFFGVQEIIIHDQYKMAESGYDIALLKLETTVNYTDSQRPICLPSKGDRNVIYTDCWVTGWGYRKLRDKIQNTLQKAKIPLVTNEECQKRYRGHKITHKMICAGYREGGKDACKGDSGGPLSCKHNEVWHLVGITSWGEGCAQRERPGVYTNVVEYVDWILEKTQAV
human factor XIa, sequence (P03951 19-387 partner limits assumed): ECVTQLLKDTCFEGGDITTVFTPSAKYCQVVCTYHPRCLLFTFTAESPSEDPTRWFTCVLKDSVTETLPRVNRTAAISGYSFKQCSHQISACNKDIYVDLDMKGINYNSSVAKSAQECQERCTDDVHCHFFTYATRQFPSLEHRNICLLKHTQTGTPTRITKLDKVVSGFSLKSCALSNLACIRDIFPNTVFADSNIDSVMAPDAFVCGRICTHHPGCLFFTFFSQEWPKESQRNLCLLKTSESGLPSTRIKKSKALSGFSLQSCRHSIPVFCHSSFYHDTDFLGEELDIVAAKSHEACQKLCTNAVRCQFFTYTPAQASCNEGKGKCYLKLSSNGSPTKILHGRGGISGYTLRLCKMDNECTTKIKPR

IC50 (Human plasma kallikrein)	IC50 (human factor XIa)	SMILES
1.5 nM	4790 nM	C[C@@H](c1cnc(N2C[C@@H]3C[C@@H]3[C@@H]2C#N)nc1)n1cc(NC(=O)c2cncc(-c3c(C(F)F)ccc(Cl)c3F)n2)cn1 [Example 199, 6-(3-chloro-6-(difluoromethyl)-2-fluorophenyl)-N-(1-((S)-1-(2-((1S,2R,5R)-2-cyano-3-azabicyclo[3.1.0]hexan-3-yl)pyrimidin-5-yl)ethyl)-1H-pyrazol-4-yl)pyrazine-2-carboxamide]
3.9 nM	639 nM	Cc1cc(N2CCC2)ncc1[C@H](C)n1cc(NC(=O)c2cncc(-c3c(C(F)F)ccc(Cl)c3F)n2)cn1 (single isomer, unassigned) [Example 66]
10.6 nM	326 nM	Cc1ncc(-c2c(C(F)F)ccc(Cl)c2F)nc1C(=O)Nc1cnn(C(CO)c2cnc(N3CCC3)nc2)c1 (single isomer, unassigned) [Example 47, (R or S)-N-(1-(1-(2-(Azetidin-1-yl)pyrimidin-5-yl)-2-hydroxyethyl)-1H-pyrazol-4-yl)-6-(3-chloro-6-(difluoromethyl)-2-fluorophenyl)-3-methylpyrazine-2-carboxamide]
1.8 nM	372 nM	CC(c1cnc(N2CCC2)nc1)n1cc(NC(=O)c2cncc(-c3cc(Cl)ccc3-n3cnnn3)n2)cn1 (single isomer, unassigned) [Example 59, (R or S)-N-(1-(1-(2-(Azetidin-1-yl)pyrimidin-5-yl)ethyl)-1H-pyrazol-4-yl)-6-(5-chloro-2-(1H-tetrazol-1-yl)phenyl)pyrazine-2-carboxamide]
10.3 nM	1460 nM	O=C(Nc1cnn(C(CO)c2cnc(N3CC4CC4C3)nc2)c1)c1cncc(-c2c(C(F)F)ccc(Cl)c2F)n1 (single isomer, unassigned) [Example 44, N-(1-((S or R)-1-(2-(3-Azabicyclo[3.1.0]hexan-3-yl)pyrimidin-5-yl)-2-hydroxyethyl)-1H-pyrazol-4-yl)-6-(3-chloro-6-(difluoromethyl)-2-fluorophenyl)pyrazine-2-carboxamide]
5.2 nM	5100 nM	Cc1nc(N2CCC2)ccc1Cn1cc(NC(=O)c2cncc(-c3c(C(F)F)ccc(Cl)c3F)n2)cn1 [Example 9, N-(1-((6-(Azetidin-1-yl)-2-methylpyridin-3-yl)methyl)-1H-pyrazol-4-yl)-6-(3-chloro-6-(difluoromethyl)-2-fluorophenyl)pyrazine-2-carboxamide]
20.7 nM	1770 nM	CC(c1cnc(N2CCC2)cn1)n1cc(NC(=O)c2cncc(-c3c(C(F)F)ccc(Cl)c3F)n2)cn1 (single isomer, unassigned) [Example 29, (S or R)-N-(1-(1-(5-(azetidin-1-yl)pyrazin-2-yl)ethyl)-1H-pyrazol-4-yl)-6-(3-chloro-6-(difluoromethyl)-2-fluorophenyl)pyrazine-2-carboxamide]
9.6 nM	292 nM	O=C(Nc1cnn(Cc2cnc(N3CCC3)nc2)c1)c1cncc(-c2c(OC(F)F)ccc(Cl)c2F)n1 [Example 64, N-(1-((2-(Azetidin-1-yl)pyrimidin-5-yl)methyl)-1H-pyrazol-4-yl)-6-(3-chloro-6-(difluoromethoxy)-2-fluorophenyl)pyrazine-2-carboxamide]
17.2 nM	675 nM	CS(=O)(=O)c1ccc(Cl)c(F)c1-c1cncc(C(=O)Nc2cnn(Cc3cnc(N4CCC4)nc3)c2)n1 [Example 207, N-(1-((2-(Azetidin-1-yl)pyrimidin-5-yl)methyl)-1H-pyrazol-4-yl)-6-(3-chloro-2-fluoro-6-(methylsulfonyl)phenyl)pyrazine-2-carboxamide]
27.7 nM	1490 nM	CC(c1cnc(N2CCC2)nc1)n1cc(NC(=O)c2cncc(-c3c(OC(F)F)ccc(Cl)c3F)n2)cn1 (single isomer, unassigned) [Example 56, (R or S)-N-(1-(1-(2-(Azetidin-1-yl)pyrimidin-5-yl)ethyl)-1H-pyrazol-4-yl)-6-(3-chloro-6-(difluoromethoxy)-2-fluorophenyl)pyrazine-2-carboxamide]
22.9 nM	1690 nM	O=C(Nc1cnn([C@@H](CO)c2cnc(N3CCC3)nc2)c1)c1cncc(-c2c(C(F)F)ccc(Cl)c2F)n1 (single isomer, unassigned) [Example 6]
19.5 nM	1170 nM	[2H]C(C)(c1cnc(N2CCC2)nc1)n1cc(NC(=O)c2cncc(-c3c(C(F)F)ccc(Cl)c3F)n2)cn1 (single isomer, unassigned) [Example 43, (R or S)-N-(1-(1-(2-(azetidin-1-yl)pyrimidin-5-yl)ethyl-1-d)-1H-pyrazol-4-yl)-6-(3-chloro-6-(difluoromethyl)-2-fluorophenyl)pyrazine-2-carboxamide]
5.4 nM	4640 nM	C[C@@H](c1cnc(N2C[C@@H]3C[C@@H]3[C@@H]2CO)nc1)n1cc(NC(=O)c2cncc(-c3c(C(F)F)ccc(Cl)c3F)n2)cn1 (single isomer, unassigned) [Example 76, 6-(3-Chloro-6-(difluoromethyl)-2-fluorophenyl)-N-(1-((S or R)-1-(2-((1S,2R,5R or 1R,2S,5S)-2-(hydroxymethyl)-3-azabicyclo[3.1.0]hexan-3-yl)pyrimidin-5-yl)ethyl)-1H-pyrazol-4-yl)pyrazine-2-carboxamide]
1 nM	3330 nM	CC(c1cnc(N2CC[C@H]2[C@@H](C)N2C[C@@H](O)[C@@H](O)C2)nc1)n1cc(NC(=O)c2cncc(-c3c(C(F)F)ccc(Cl)c3F)n2)cn1 (stereo partly drawn) [Example 187, 6-(3-Chloro-6-(difluoromethyl)-2-fluorophenyl)-N-(1-(1-(2-((S)-2-((R)-1-((3R,4S)-3,4-dihydroxypyrrolidin-1-yl)ethyl)azetidin-1-yl)pyrimidin-5-yl)ethyl)-1H-pyrazol-4-yl)pyrazine-2-carboxamide]
9.3 nM	6010 nM	CC(c1cnc(N2CC(F)(F)C2)nc1)n1cc(NC(=O)c2cncc(-c3c(C(F)F)ccc(Cl)c3F)n2)cn1 (stereo not drawn) [Example 82, 6-(3-Chloro-6-(difluoromethyl)-2-fluorophenyl)-N-(1-(1-(2-(3,3-difluoroazetidin-1-yl)pyrimidin-5-yl)ethyl)-1H-pyrazol-4-yl)pyrazine-2-carboxamide]
2.5 nM	2260 nM	C[C@@H](c1cnc(N2C[C@@H]3C[C@@H]3[C@@H]2CO)nc1)n1cc(NC(=O)c2cncc(-c3c(C(F)F)ccc(Cl)c3F)n2)cn1 (single isomer, unassigned) [Example 71, 6-(3-Chloro-6-(difluoromethyl)-2-fluorophenyl)-N-(1-((S or R)-1-(2-((1S,2R,5R or 1R,2S,5S)-2-(hydroxymethyl)-3-azabicyclo[3.1.0]hexan-3-yl)pyrimidin-5-yl)ethyl)-1H-pyrazol-4-yl)pyrazine-2-carboxamide]
9.4 nM	852 nM	C[C@H](O)c1ncc(-c2c(C(F)F)ccc(Cl)c2F)nc1C(=O)Nc1cnn(Cc2cnc(N3CCC3)nc2)c1 (single isomer, unassigned) [Example 134]
36.8 nM	3380 nM	O=C(Nc1cnn(Cc2cnc(N3CCCC3CCO)nc2)c1)c1cncc(-c2c(C(F)F)ccc(Cl)c2F)n1 (single isomer, unassigned) [Example 105, (S or R)-6-(3-Chloro-6-(difluoromethyl)-2-fluorophenyl)-N-(1-((2-(2-(2-hydroxyethyl)pyrrolidin-1-yl)pyrimidin-5-yl)methyl)-1H-pyrazol-4-yl)pyrazine-2-carboxamide]
33.9 nM	827 nM	COc1ccc(C(F)F)c(-c2cncc(C(=O)Nc3cnn(Cc4cnc(N5CCC5)nc4)c3)n2)c1F [Example 208, N-(1-((2-(Azetidin-1-yl)pyrimidin-5-yl)methyl)-1H-pyrazol-4-yl)-6-(6-(difluoromethyl)-2-fluoro-3-methoxyphenyl)pyrazine-2-carboxamide]
11 nM	8800 nM	CC(c1cnc(N2C[C@H]3C[C@H]3[C@H]2C(N)=O)nc1)n1cc(NC(=O)c2cncc(-c3c(C(F)F)ccc(Cl)c3F)n2)cn1 (relative stereo) [Example 195, (cis)-3-(5-(1-(4-(6-(3-Chloro-6-(difluoromethyl)-2-fluorophenyl)pyrazine-2-carboxamido)-1H-pyrazol-1-yl)ethyl)pyrimidin-2-yl)-3-azabicyclo[3.1.0]hexane-2-carboxamide]
0.5 nM	366 nM	CC1(O)CN(C[C@@H]2[C@@H]3C[C@@H]3CN2c2ncc(Cn3cc(NC(=O)c4cncc(-c5c(C(F)F)ccc(Cl)c5F)n4)cn3)cn2)C1 [Example 145, 6-(3-Chloro-6-(difluoromethyl)-2-fluorophenyl)-N-(1-((2-((1R,2S,5S)-2-((3-hydroxy-3-methylazetidin-1-yl)methyl)-3-azabicyclo[3.1.0]hexan-3-yl)pyrimidin-5-yl)methyl)-1H-pyrazol-4-yl)pyrazine-2-carboxamide]
6.7 nM	1990 nM	O=C(Nc1cnn(Cc2cnc(N3CC4CC4C3)nc2)c1)c1cncc(-c2c(C(F)F)ccc(Cl)c2F)n1 (stereo not drawn) [Example 80, N-(1-((2-(3-Azabicyclo[3.1.0]hexan-3-yl)pyrimidin-5-yl)methyl)-1H-pyrazol-4-yl)-6-(3-chloro-6-(difluoromethyl)-2-fluorophenyl)pyrazine-2-carboxamide]
24.4 nM	3940 nM	C[C@@H](c1cnc(N2CCC2)nc1)n1cc(NC(=O)c2cncc(-c3c(C(F)(F)F)ccc(Cl)c3F)n2)cn1 (single isomer, unassigned) [Example 55]
23.1 nM	1320 nM	C[C@H](c1cnc(N2CCC2)nc1)n1cc(NC(=O)c2cncc(-c3c(C(F)F)ccc(Cl)c3F)n2)cn1 (single isomer, unassigned) [Example 4]
